The NIST ThermoML archive (doi:10.1016/j.fluid.2012.11.030)
Numbers after ± are expanded uncertainties.

Tests used:
[1] = Molar enthalpy of transition or fusion; details: Crystal; DSC
[2] = Crystal; DTA

CCCCCCCC/C=C\CCCCCCCC(=O)OCC [ethyl (Z)-9-octadeceneoate]
Molar enthalpy of transition or fusion [1]: 11.4 ± 0.311 kcal/mol
Normal melting temperature [2]: -19.06 ± 0.7 °C

CCCCCCCCCCCC(=O)OCC [ethyl dodecanoate]
Molar enthalpy of transition or fusion [1]: 9.52 ± 0.263 kcal/mol
Normal melting temperature [2]: 0.1 ± 0.7 °C

CCCCCCCCCCCCCCCC(=O)OCC [ethyl hexadecanoate]
Molar enthalpy of transition or fusion [1]: 13.3 ± 0.359 kcal/mol
Normal melting temperature [2]: 25.08 ± 0.7 °C
